From EP1068346B1, “NUCLEOTIDE ACTIVATED DISACCHARIDES AND OLIGOSACCHARIDES AND METHOD FOR THE PRODUCTION THEREOF” (Forschungszentrum Jülich GmbH, priority 1998, dated 1999)

Type: physicochemical
Experimental: Insgesamt wurden 4.21 mg UDP-LacNAc isoliert (Gesamtausbeute: 5.2%). Die Substanz ist mindestens 6 Monate bei -20°C stabil. UDP-LacNAc wurde durch NMR-Spektroskopie und Massenspektrometrie charakterisiert. (Fig.1-4)

For Gal(β1-4)GlcNAc(α1-UDP [UDP-LacNAc], the stabil was ≥ 6 Monate.
